In PubChem BioAssay (NCI) one finds GI50 and TGI data, which are given here for eleven compounds.

Holding throughout (test): inhibition of tumour cell growth, NCI panel, 48 h
Assay [1] has as its system NCI-H226 lung.
The test system of assay [2] is A549 NSCLC.
The test system of assay [3] is IGROV1 ovarian.
Assay [4] relates to HS 578T breast.
Assay [5] relates to NCI-H460 lung.
For assay [6], the system named is NCI/ADR-RES ovarian.
In assay [7] the test system is SK-MEL-28 melanoma.
Assay [8] has as its system KM12 colon.
Assay [9] relates to SK-MEL-2 melanoma.
The subject of assay [10] is MDA-MB-231 breast.

Molecules are shown by their SMILES. “And” between values parts separate entries of the source, which are not always exact repeats. Equal entries are not always repeated.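 Tested at 5 concentrations; 48 h exposure; 96-well plates; endpoints linearly interpolated, else capped at highest concentration. GI50 is the concentration that inhibits growth by half. At the TGI there is no net growth.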

As to `Nc1nc(N)c2c(n1)NC(c1ccc(Cl)cc1)C1CCc3ccccc3C1=N2` (centres undefined), the GI50 in assay [1] was 8.58 µM; in assay [2], 11.8 µM; in [3], 6.16 µM; in assay [4], 15 µM; in [5] it was 3.77 µM; in assay [6], 5.53 µM. Further, the GI50 in [7] was 13.9 µM; in assay [8] it was 8.48 µM; in assay [9] it was 10.6 µM; in [10] it was 9.73 µM. Besides, the TGI is 27.8 µM in assay [1]; 25 µM in assay [2]; 20.4 µM in assay [3]; 50.3 µM in [4]; 12.9 µM in assay [5]; 18.2 µM in [6]. The TGI is 27.4 µM in assay [7], 20.8 µM in [8], 24.6 µM in [9] and 21.8 µM in [10].
As for `CCN(Cc1c(F)cccc1C(F)(F)F)c1ccc(CO)c(Cl)c1`, the GI50 in assay [1] was 0.035 µM; in assay [2], 5.56 µM; in [3], < 0.0338 µM; in [4], 18.3 µM; in [5] it was 0.0894 µM; in [6], 14.7 µM. The GI50 was 13.9 µM in assay [7], 14.1 µM in assay [8], 3.33 µM in assay [9] and 14.6 µM in assay [10]. Moreover, the TGI in assay [1] was found to be 0.154 µM; in assay [2], 23.1 µM; in assay [4], 42.1 µM; in assay [5], 17.2 µM; in assay [6] it was 32.1 µM; in [7], 27.6 µM. Moreover, the TGI in [8] worked out at 29.4 µM; in assay [9] it was 24.5 µM; in assay [10] it was 28.3 µM.
Take `Cc1cccc(Nc2ncc(-c3ccccc3)o2)c1`: the GI50 in assay [1] was > 25 µM; in assay [2], > 25 µM; in assay [3] it was > 25 µM; in [4], > 7 µM; in assay [5] it was > 25 µM; in assay [6], > 25 µM. Also, the GI50 in [7] is > 25 µM; in assay [8], 8.04 µM; in assay [9], > 25 µM; in [10], > 18.8 µM. In addition, the TGI in assay [1], in [2], in assay [3], in assay [4], in [5] and in [6] was > 25 µM each time. Further, the TGI in assay [7], in [8], in assay [9] and in [10] was > 25 µM in each case.
With `NC(=O)C1CCCN1Cc1ccc2c(c1)OCO2` (centres undefined), the TGI in assay [1], in assay [2], in [3], in assay [4], in assay [5] and in [6] was > 100 µM each time. Besides, the TGI in [7], in [8], in [9] and in [10] was > 100 µM in each case.
As for `CNC(=O)c1cc(Oc2ccc(NC(=O)Nc3ccc(Cl)c(C(F)(F)F)c3)cc2)ccn1`, the GI50 was 1.14 µM and 2.29 µM and 2 µM in [1]; 3.03 µM and 2.57 µM and 2.92 µM in [2]; 3.52 µM and 3.44 µM and 2.6 µM in assay [3]; 2.96 µM and 2.33 µM and 2.59 µM in assay [4]; 3.17 µM and 2.88 µM and 2.44 µM in assay [5]; 3.06 µM and 2.63 µM and 2.65 µM in assay [6]. Besides, the GI50 in assay [7] is 2.42 µM and 2.59 µM and 2.63 µM; in assay [8], 2.42 µM and 1.86 µM and 1.8 µM; in [9], 1.16 µM and 1.31 µM and 1.77 µM; in assay [10], 1.74 µM and 1.62 µM and 1.33 µM. The TGI in assay [1] is 9.38 µM and 7.14 µM and 7.27 µM; in [2], > 10 µM and 11.5 µM and 13.6 µM; in assay [3], > 10 µM and 15.3 µM and 9.14 µM; in assay [4] it was > 10 µM and 8.47 µM and 16.4 µM; in [5], > 10 µM and 10.2 µM and 7.09 µM; in [6], > 10 µM and 7.89 µM and 15.7 µM. The TGI in assay [7] was 8.45 µM and 7.23 µM and 7.5 µM; in assay [8], > 10 µM and 8.07 µM and 6.97 µM; in assay [9] it was 3.57 µM and 2.93 µM and 6.22 µM; in [10], 4.4 µM and 4.42 µM and 4.14 µM.
Turning to `COc1ccc2c(c1)C(=O)CC(C(N)=O)C2` (centres undefined), the TGI in assay [1], in [2], in assay [3], in [4], in assay [5] and in [6] was > 100 µM throughout. For the same compound, the TGI in assay [7], in assay [8], in assay [9] and in [10] was > 100 µM in each case.
For `Fc1ccc(Nc2ccnc(N3CCN(c4ccnc5cc(Cl)ccc45)CC3)n2)cc1`, the GI50 was 2.52 µM in assay [1]; 2.66 µM in assay [2]; 3.38 µM in assay [3]; 2.83 µM in assay [4]; 1.74 µM in assay [5]; 2.24 µM in assay [6]. Further, the GI50 is 3.27 µM in [7], 2.33 µM in assay [8], 2.16 µM in assay [9] and 1.51 µM in assay [10]. The TGI in [1] is 17.5 µM; in assay [2] it was > 100 µM; in assay [3], 30.9 µM; in [4], 39 µM; in assay [5], 4.54 µM; in assay [6], 6.41 µM. Moreover, the TGI in [7] turned out to be 12.9 µM; in [8] it was 6.66 µM; in [9], 4.07 µM; in assay [10], 4.33 µM.
In the case of `Cc1ccccc1N=C(c1ccccc1)C1C(=O)c2ccccc2C1=O`, the GI50 in assay [1] is 19.4 µM; in [2] it was 12.3 µM; in [3], 10.7 µM; in assay [4], 18.3 µM; in assay [5], 6.91 µM; in assay [6] it was 8.73 µM. The GI50 in assay [7] is 24.9 µM; in assay [8] it was 10.7 µM; in [9], 3.32 µM; in assay [10] it was 21.3 µM. In addition, the TGI in assay [1] is 57.5 µM; in assay [2] it was > 100 µM; in [3], 39.4 µM; in assay [4], 95.3 µM; in [5], 38 µM; in [6], 47.3 µM. The TGI in assay [7] is > 100 µM; in assay [8], 30.8 µM; in [9] it was 59.8 µM; in [10], > 100 µM.
Regarding `Cc1cc(C2CC(O)C(CO)O2)c(Br)cc1Br` (centres undefined), the GI50 in [1] was > 100 µM; in [2] it was > 100 µM; in assay [3] it was 33.8 µM; in assay [4] it was 49.9 µM; in assay [5] it was > 100 µM; in assay [6], > 100 µM. The GI50 was > 100 µM in assay [7], > 100 µM in [8], > 100 µM in assay [9] and 58.5 µM in assay [10]. Further, the TGI in [1], in [2], in [3], in [4], in assay [5] and in [6] was > 100 µM each time. Further, the TGI in assay [7], in assay [8], in assay [9] and in [10] was > 100 µM throughout.
Take `CC(C)Cc1cc(-c2cccn2C)c(C#N)c(=O)[nH]1`: the GI50 in assay [1], in assay [2], in [3], in assay [4], in assay [5] and in assay [6] was > 100 µM throughout. Moreover, the GI50 in [7], in [8], in [9] and in [10] was > 100 µM throughout. For the same compound, the TGI in assay [1], in assay [2], in [3], in assay [4], in assay [5] and in assay [6] was > 100 µM in each case. Besides, the TGI in [7], in assay [8], in [9] and in assay [10] was > 100 µM each time.
On to `O=C(Nc1ccn(C2CCC(COC(c3ccccc3)(c3ccccc3)c3ccccc3)O2)c(=O)n1)c1ccccc1` (centres undefined), for which the TGI in assay [1] turned out to be 18 µM; in assay [2], 13 µM; in assay [3] it was 13.4 µM; in assay [4], 9.05 µM; in assay [5], 10.4 µM; in assay [6], 8.73 µM. In addition, the TGI in [7] amounted to 16.9 µM; in assay [8], 14.6 µM; in assay [9], 8.71 µM; in assay [10], 13.9 µM.
